“And” between values parts separate entries of the source, which are not always exact repeats. Identical values can stand only once. Inconclusive results and toxic doses are left out. Rule as the data show it: active = T/C of 150% or more; inactive = T/C below 125%.
Test system: L1210 leukemia ip in BDF1 mice, survival T/C
Assay: NCI In Vivo Anticancer Drug Screen. Data for tumor model L1210 Leukemia (intraperitoneal) in B6D2F1 (BDF1) mice
Conditions: endpoint: mean survival time, higher = longer survival
How it was run: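 Each compound was tested against a transplantable tumor grown in mice. The endpoint was survival, with treated animals benchmarked against vehicle controls as a simple ratio.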

[1] = dose: 100.0 mg/kg/injection, schedule: Q04DX003 (ip), vehicle: saline with Tween-80
[2] = dose: 200.0 mg/kg/injection, schedule: Q04DX003 (ip), vehicle: saline with Tween-80
[3] = dose: 400.0 mg/kg/injection, schedule: Q04DX003 (ip), vehicle: saline with Tween-80
[4] = dose: 100.0 mg/kg/injection, schedule: Q04DX002 (ip), vehicle: saline
[5] = dose: 200.0 mg/kg/injection, schedule: Q04DX002 (ip), vehicle: saline
[6] = dose: 100.0 mg/kg/injection, schedule: Q01DX009 (ip), vehicle: Klucel (hydroxypropylcellulose) (HPC)
[7] = dose: 100.0 mg/kg/injection, schedule: Q04DX002 (ip), vehicle: Klucel (hydroxypropylcellulose) (HPC)
[8] = dose: 100.0 mg/kg/injection, schedule: Q04DX003 (ip), vehicle: Klucel (hydroxypropylcellulose) (HPC)
[9] = dose: 200.0 mg/kg/injection, schedule: Q01DX009 (ip), vehicle: Klucel (hydroxypropylcellulose) (HPC)
[10] = dose: 200.0 mg/kg/injection, schedule: Q04DX002 (ip), vehicle: Klucel (hydroxypropylcellulose) (HPC)
[11] = dose: 200.0 mg/kg/injection, schedule: Q04DX003 (ip), vehicle: Klucel (hydroxypropylcellulose) (HPC)
[12] = dose: 400.0 mg/kg/injection, schedule: Q04DX002 (ip), vehicle: Klucel (hydroxypropylcellulose) (HPC)
[13] = dose: 400.0 mg/kg/injection, schedule: Q04DX003 (ip), vehicle: Klucel (hydroxypropylcellulose) (HPC)
[14] = dose: 50.0 mg/kg/injection, schedule: Q01DX009 (ip), vehicle: saline with Tween-80
[15] = dose: 100.0 mg/kg/injection, schedule: Q01DX009 (ip), vehicle: saline with Tween-80
[16] = dose: 200.0 mg/kg/injection, schedule: Q01DX009 (ip), vehicle: saline with Tween-80
[17] = dose: 100.0 mg/kg/injection, schedule: Q01DX001 (ip), vehicle: saline
[18] = dose: 200.0 mg/kg/injection, schedule: Q01DX001 (ip), vehicle: saline
[19] = dose: 400.0 mg/kg/injection, schedule: Q01DX001 (ip), vehicle: saline

Measured: T/C

Cc1c(C(C)c2[nH]c3ccccc3c2C)[nH]c2ccccc12
inactive: dose: 50.0 mg/kg/injection, schedule: Q01DX001 (ip), vehicle: other 98 % of control | dose: 100.0 mg/kg/injection, schedule: Q01DX001 (ip), vehicle: other 102 % of control | dose: 200.0 mg/kg/injection, schedule: Q01DX001 (ip), vehicle: other 91 % of control | dose: 400.0 mg/kg/injection, schedule: Q01DX001 (ip), vehicle: other 93 % of control

O=C1CSCc2c1ccc1ccccc21
inactive: [1] 106 % of control | [2] 100 % of control | [3] 108 % of control

O=C(OCc1ccccc1CN1CCCC1)c1ccc([N+](=O)[O-])cc1Cl
inactive: [4] 107 % of control | [5] 96 % of control

CC(C)C1(C)NC(=O)NC1=O (centres undefined)
inactive: dose: 100.0 mg/kg/injection, schedule: Q04DX003 (ip), vehicle: saline 110 % of control | dose: 200.0 mg/kg/injection, schedule: Q04DX003 (ip), vehicle: saline 105 % of control | dose: 400.0 mg/kg/injection, schedule: Q04DX003 (ip), vehicle: saline 100 % of control

S=C(N/N=C/c1ccncc1)Nc1ccccc1
inactive: dose: 100.0 mg/kg/injection, schedule: Q01DX001 (ip), vehicle: Klucel (hydroxypropylcellulose) (HPC) 96 % of control | [6] 97 % of control and 100 % of control | [7] 102 % of control and 91 % of control | [8] 103 % of control | dose: 200.0 mg/kg/injection, schedule: Q01DX001 (ip), vehicle: Klucel (hydroxypropylcellulose) (HPC) 100 % of control | [9] 108 % of control | [10] 98 % of control and 102 % of control | [11] 106 % of control | dose: 400.0 mg/kg/injection, schedule: Q01DX001 (ip), vehicle: Klucel (hydroxypropylcellulose) (HPC) 98 % of control | dose: 400.0 mg/kg/injection, schedule: Q01DX009 (ip), vehicle: Klucel (hydroxypropylcellulose) (HPC) 94 % of control and 104 % of control | [12] 97 % of control and 98 % of control | [13] 94 % of control

COC(=O)C(N)CO (centres undefined)
inactive: [1] 105 % of control | [2] 105 % of control | [3] 91 % of control

COc1ccc(C(C)c2ccccc2)cc1 (centres undefined)
inactive: [1] 98 % of control | [2] 95 % of control | [3] 93 % of control

O=C(CSc1cc(Cl)c(Cl)cc1Cl)Nc1ccccc1Br
inactive: [14] 94 % of control | [15] 97 % of control | [16] 87 % of control

Clc1cccc(/C=N/Nc2nnc(N/N=C/c3cccc(Cl)c3)c3ccccc23)c1
inactive: dose: 50.0 mg/kg/injection, schedule: Q01DX001 (ip), vehicle: saline 100 % of control | [17] 103 % of control | [18] 100 % of control | [19] 100 % of control

CCCCCCCCCCC(=O)N1CCCCC1
inactive: [4] 100 % of control | [5] 96 % of control | dose: 400.0 mg/kg/injection, schedule: Q04DX002 (ip), vehicle: saline 96 % of control

CC(=O)Oc1ccc(C2C3=C(COC3=O)CC3=C2C(=O)OC3)cc1
inactive: [15] 104 % of control | [1] 96 % of control | [16] 100 % of control | [2] 97 % of control | dose: 400.0 mg/kg/injection, schedule: Q01DX009 (ip), vehicle: saline with Tween-80 96 % of control | [3] 96 % of control

CCOc1cc(/C=N/N2CCN(/N=C/c3ccc(O)c(OCC)c3)CC2)ccc1O
inactive: [17] 117 % of control | [18] 94 % of control | [19] 88 % of control

COc1ccc(OC)c(-n2cccc2/C=N/NC(N)=O)c1
inactive: [7] 97 % of control | [10] 108 % of control | [12] 93 % of control

C[CH2][Sn]([Cl])([CH2]C)[O][Sn]([Cl])([CH2]C)[CH2]C
inactive: dose: 3.12 mg/kg/injection, schedule: Q04DX003 (ip), vehicle: saline with Tween-80 100 % of control | dose: 6.25 mg/kg/injection, schedule: Q04DX003 (ip), vehicle: saline with Tween-80 100 % of control | dose: 12.5 mg/kg/injection, schedule: Q04DX003 (ip), vehicle: saline with Tween-80 106 % of control

CO/C(C)=C(/C#N)C(N)=S
inactive: dose: 100.0 mg/kg/injection, schedule: Q04DX002 (ip), vehicle: saline with Tween-80 93 % of control | dose: 200.0 mg/kg/injection, schedule: Q04DX002 (ip), vehicle: saline with Tween-80 97 % of control | dose: 400.0 mg/kg/injection, schedule: Q04DX002 (ip), vehicle: saline with Tween-80 101 % of control

COC(=O)Nc1cccc(OC(=O)NC2CCCCC2)c1
inactive: [1] 100 % of control | [2] 100 % of control | [3] 93 % of control

O=C(O)CCC(=O)c1cccc([N+](=O)[O-])c1
inactive: [14] 103 % of control | [6] 95 % of control | [15] 107 % of control | [8] 91 % of control | [9] 103 % of control | [16] 87 % of control | [11] 94 % of control | [13] 94 % of control

— PubChem BioAssay AID248 (DTP/NCI, 2004)
